Source: US8394742B2, “Methods, compounds and compositions with genotype selective anticancer activity” (The Translation Genomics Research Institute, priority 2005, dated 2013)

Legend:
DPC4 [1] = test: DPC4 suppression by siRNA expression constructs, transient transfection; format: cell-based, human; conditions: MiaPaCa-2 (wild-type DPC4), 24 hours after transfection
Excerpt: The pMSCVproH vector was first used to create 6 DPC4 siRNA expression constructs, each of which targets a different region of the DPC4 transcript. Each of the oligonucleotide sequences was designed based on the criteria described by Tuschl and co-workers (65) and blasted against the GenBank database to confirm their specificity for DPC4.
Applicants first tested the ability of these constructs in suppressing DPC4 expression by performing transient transfections. Each construct was transiently transfected into the pancreatic cancer cell line MiaPaCa-2 (wild-type DPC4) using the Lipofectin Reagent (Invitrogen). DPC4 expression was examined 24 hours after transfection.

DPC4 [2] = test: DPC4 suppression in HPDE6 clones after retrovirus infection (Western blot); format: cell-based, human
Excerpt: Because of its high suppression ability in transient transfections, the construct pMSCVpuroH_DPC4_oligo4 was chosen to generate a cell line with stable DPC4 suppression from HPDE6. To verify the specificity of Oligo4, Applicants created a construct with a mutated Oligo4, Oligo4mut10. The only difference between the two oligos is that the nucleotide residue at position 10 was changed from cytosine in Oligo4 to adenine in Oligo4mut10 (FIG. 11A). After retrovirus infection, HPDE6 cells were selected with puromycin at 3 μg/ml. Individual clones were isolated using serial dilution of the cells in 96-well plates. Ten individual clones for each construct were picked and tested for DPC4 expression at protein level by Western blot.
Eight passages after the infection, the expression of DPC4 in this clone was still 90% inhibited compared to the HPDE6 cells transfected with the empty vector (HPDE6-vector). This new cell line, which was named HPDE6-siDPC4, along with HPDE6-vector forms a set of isogenic cell lines for the DPC4 gene.

| Substance | DPC4 suppression (DPC4 [1]) | expression of DPC4 inhibited (DPC4 [2]; HPDE6 clone (HPDE6-siDPC4), eight passages after infection, vs HPDE6-vector) | DPC4 suppression (DPC4 [2]; HPDE6 individual clones, six out of 10, protein level by Western blot) |
| --- | --- | --- | --- |
| 5′AGCAAGGTTGCACATAGGC 3′ [Olig6] | about 80% | – | – |
| 5′GTAGGACTGCACCATACAC 3′ [Oligo4] | about 90% | 90% | about 90% |
